PMC3057995, “Potent Anti-Tumor Effect Generated by a Novel Human Papillomavirus (HPV) Antagonist Peptide Reactivating the pRb/E2F Pathway” (PLoS ONE, 2011)
“Also recorded” adds a separate entry of the source.

Legend:
[1] = test system: CaSki cells; assay: Clonogenic assay, CaSki; type: cell-based; conditions: 14 days
Description: Cells were seeded in DMEM at 1×10^3 cells/well density in 12-well plates and allowed to attach to the substrate overnight. Thereafter, cells were treated with 0 µM, 16 µM, 32 µM, 80 µM, and 160 µM peptide in DMEM, and the medium was changed every three days. The plates were observed daily for colony formation. After 8 (for HeLa cells) or 14 (for SiHa and CaSki cells) days of treatment, the cultures were washed three times with PBS and stained with crystal violet in ethanol for 15 min. The colonies were then counted and photographed with the Alphalmager® EP image acquisition system (Alpha Innotech, Santa Clara, CA, USA).

[2] = test system: HeLa cells; assay: MTT cell viability assay, HeLa; type: cell-based; conditions: HPV18-positive, A540
Description: (§1) Cell viability was determined with an MTT assay. Briefly, the cells were seeded into 96-well plates at a density of 4–5×10^3 cells/well. The cells were allowed to recover for 24 h before the medium was replaced with DMEM supplemented with peptides at different concentrations. The solvent of the peptides was set as the control. The peptide-supplemented medium was replaced daily and the respective concentrations were maintained. The cells were subjected to an MTT cell proliferation assay at different time points. The plates were incubated at 37°C for 3 h with the addition of 20 µl/well MTT (5 mg/ml). Untransformed MTT in the solution was removed by aspiration. The formazan product was dissolved in DMSO, and plates were shaken vigorously at room temperature for 10–15 min to ensure complete solubilization. The optical density of the formazan solutions was measured by microplate reader at 540 nm.

[3] = test system: SiHa cells; assay: PI staining cell cycle analysis by flow cytometry; type: cell-based; conditions: for percentage of cells in S-phase: control 25.96%
Description: Cell cycle distribution was determined by flow cytometry DNA analysis. […] After 24 h, cells were harvested and counterstained with PI (Invitrogen, Carlsbad, CA, USA) for flow cytometry according to the manufacturer's instructions. Briefly, cells were trypsinized and resuspended in 1 ml PBS. Cell suspension was dropped slowly into 4 ml anhydrous ethanol pre-cooled at −20°C and mixed. After standing at −20°C for more than 15 min, the ethanol was removed by centrifugation, after which 5 ml PBS was added and mixed, and cells were re-hydrated at room temperature for 15 min. PBS was then removed by centrifugation. Cells were stained with 2 µg/ml propidium iodide in 1 ml dilution buffer (100 mmol/L Tris, pH 7.4, 150 mmol/L NaCl, 1 mmol/L CaCl2, 0.5 mmol/L MgCl2, 0.1% Nonidet P-40, 100 µg/ml RNAase) at room temperature for 15 min and subjected to flow cytometry analysis. Analysis was performed on an Epics-XL flow cytometer (Beckman Coulter, Inc. CA, USA) with Modfit 3.0 software (Verity Software House, Topsham, ME, USA).

[4] = test system: pRb; assay: pRb phosphorylation Western blot; type: cell-based; conditions: SiHa, 80 µM, 24 h
[5] = test system: cyclins A, D1, and E1; assay: qRT-PCR of tumor tissues; type: in vivo, mouse (Balb/C-nu/nu)
Description: (§2) Total RNA was extracted from the cultured cells using TRIzol reagent (Invitrogen, Carlsbad, CA,USA) according to the manufacturer's instructions. qRT-PCR was used to confirm the expression levels of mRNAs. Reverse transcription and qPCR were performed according to the protocol of Reverse Transcriptase System™ and SYBR® premix Ex Taq™ (Perfect Real Time) (TaKaRa, Dalian, P.R. China) on the ABI 7300 Real Time PCR System (Applied Biosystems, Foster City, CA, USA) supplied with analytical software. β-actin mRNA levels were used for normalization. Each sample was determined in triplicate. The results represent means ± SE from three experiment runs.

[6] = test system: CaSki cells; assay: qRT-PCR, CaSki; type: cell-based; conditions: 80 µM
Description: as §2

[7] = test system: SiHa cells; assay: MTT cell viability assay, SiHa; type: cell-based; conditions: HPV16-positive, 80 µM in Fig. 3C, medium replaced daily, A540, mean ± SE, at least two independent runs in sextuplicate
Description: as §1

[8] = test system: pRb; assay: Immunohistochemistry of tumor tissues, pRb; type: in vivo, mouse (Balb/C-nu/nu); conditions: 400 µg/mouse group vs control
Description: Three or two mice bearing tumor of each group were prelabeled with intra-peritoneal injection of BrdU (100 mg/kg, Sigma-Aldrich, Inc., Aaint Louis, MO, USA) 15 hours before sacrificed. Tumor specimens were then prepared as formalin-fixed, paraffin-embedded sections for hematoxylin-eosin staining, BrdU and pRb immunohistochemical staining as previously described, [57]. In brief, immunostaining was performed on formalin-fixed, paraffin-embedded sections using the anti-pRb monoclonal and anti- BrdU monoclonal antibodies, respectively. Before the application of the primary antibodies, an antigen retrieval technique was performed. […] The antibodies were detected by means of the Strept Avidin-Biotin Complex (SABC) method (Wuhan Boster Biological Technology, Ltd., Wuhan, P.R. China.) according to the manufacturer's instructions. Stained slides were examined under a Nikon ECLIPSE TE2000-U microscope (Nikon Corporation, Tokyo, Japan) and images were collected and analyzed with Pixera Penguin 600CL DiRactor™ (Pixera Corporation, Los Gatos, CA, USA). BrdU or pRb-positive cells were counted in each section. The total cell number was determined by nuclear staining with hematoxylin. At least 1000 total cells for each case were counted.

[9] = test system: HaCat human keratinocyte cells; assay: MTT cell viability assay, HaCat; type: cell-based; conditions: HPV-negative, data not shown
Excerpt: HPV16-positive SiHa and CaSki cervical carcinoma cells were supplied by China Center for Type Culture Collection (CCTCC). The following cell lines used in this project were from our laboratory: HPV18-positive HeLa cervical carcinoma cells, CNE nasopharyngeal carcinoma cells, HaCat human keratinocyte cells, COS7 (African green monkey SV40-transformed kidney fibroblast cell line), 293T (human kidney epithelial cells), and NIH/3T3 mouse embryonic fibroblast cells. All cells were maintained in a humidified atmosphere of 5% CO2, Dulbecco's modified Eagle's medium (DMEM, pH 7.2), supplemented with 10% fetal calf serum (FCS).
as §1, with “The formazan product was dissolved in DMSO, and plates were shaken vigorously at room temperature for 10–15 min to ensure complete solubilization.” left out

[10] = test system: HPV18 E7; assay: Competitive ELISA with HPV18 E7 anti-serum; type: binding; conditions: peptides 0.08 µM to 800 µM vs HPV18 E7 anti-serum; mean ± SE, three independent experiments

“SACPKGLDWCGG (C&C bridged by disulfide bonds) (disulfide) [Pep-7]” was tested, and the colony formation ([1]; 16-160 µM) was “inhibited”, the “concentration up to which colony number difference vs control became significant (p<0.02)” value ([1]; vs 0 µM group, three independent experiments) was 32 µM and the “cell proliferation (MTT)” value [2] was “could not repress the proliferation of HeLa cells”. The “percentage of cells in S-phase” value ([3]; 32 µM Pep-7, 24 h) was 14.75%, the “percentage of cells in S-phase” value ([3]; 80 µM Pep-7, 24 h) was 8.75% and the G1-to-S phase transition ([3]; 24 h, 32 and 80 µM, p<0.02) was “inhibited G1-to-S phase transition of SiHa cells significantly; also recorded: induced G1 arrest in SiHa cells”. For the same sequence, the “phosphorylation of pRb” value [4] was “not affected significantly”, the “cyclins A, D1, and E1 RNA levels in tumor tissue” value [5] was “reduced” and the “cyclins A, D1 and E1 RNA expression” value [6] was “significantly reduced”. The “pRb and HPV16E7 RNA levels” value [6] was “not affected”, the “cell proliferation (MTT)” value [7] was “repressed significantly by Pep-7 in a dose- and time-dependent manner” and the “pRb protein level in tumor tissue” value [8] was “increased”. The “cell proliferation (MTT)” value [9] was “negligible effect” and the “binding to HPV18 E7” value [10] was “did not bind to HPV18 E7”.
